Data reported in patent US20230392180A1, “MICROSCOPIC IMAGING AND ANALYSES OF EPIGENETIC LANDSCAPE” (Sanford Burnham Prebys Medical Discovery Institute, priority 2020, published 2023).
“Also recorded” adds a separate entry of the source. Each block holds one compound with its values, some of them ahead of it.

How the values were obtained:
[1] = test system: primary mouse hepatocytes; experiment: MIEL-Rejuvenation in primary old hepatocytes; assay type: cell-based, mice; settings: for outcome in high throughput screening using primary mouse hepatocytes (miBioAge): figure legends FIG. 63-65; for shift of epigenetic signature of old cells towards that of young cells: old hepatocytes
Source text: To meet this challenge, techniques described herein were employed to analyze the effects of various drugs on the analysis of epigenome topography at the single cell level. Because of large numbers of cells required for drug screening, mice were used as a source of (C57BLACK/6) of liver hepatocytes (˜98% pure in the preparations) for probing whether epigenetic signature of aging is retained after short-term cultures of hepatocytes. […] The ability of hepatocytes to maintain age-related epigenetic or multiparametric signatures in cell culture conditions provides the foundation for high throughput screening.
These high content screenings using MIEL pipeline were conducted to adapt these assay conditions. Briefly, on day 0, 10,000 primary mouse hepatocytes per well were seeded in 384 well plates. Hepatocytes were isolated via a 2-step perfusion method yielding ˜98% pure population of primary hepatocytes. At 24 hrs after seeding, compounds were added in DMSO. Primary mouse hepatocytes were determined to tolerate DMSO concentrations of at least 0.1% (v/v) without adverse effects on cell growth or viability over 5 days (compared to no DMSO control). Using the Echo acoustic compound dispensing system and 10 mM stock concentration library plates, each of the drugs at concentrations up to 10 μM was sufficiently delivered. At 4 days after seeding, cells were fixed and immunolabeled with antibody to H3K9me3, H3K27me3, and H4K20me3 (initially in separate wells) to determine the efficiency of each individual mark and potential for synergy.

GBM2 cells [2] = experiment: RNAseq and transcriptomic analysis; assay type: cell-based, human; settings: for ranking by average Euclidean distance from serum- or Bmp4-treated cells (MIEL- and gene expression-based) / gene expression changes (GO terms) compared with those induced by serum or BMP4: GBM2, 3 days; for ranking by average Euclidean distance from serum- or Bmp4-treated cells (MIEL- and gene expression-based): 8 candidate compounds; for Euclidean distance (FPKM, all expressed genes) of treated cells to serum or Bmp4 treated cells: GBM2 TPCs
Protocol: RNAseq and transcriptomic analysis: Total RNA was isolated from GBM2 cells using the RNeasy Kit (Qiagen), 0.5 ug total RNA was used for isolation of mRNAs and library preparation. Library preparation and sequencing was conducted by the SBP genomics core (Sanford-Burnham NCI Cancer Center Support Grant P30 CA030199). PolyA RNA was isolated using the NEBNext® Poly(A) mRNA Magnetic Isolation Module and barcoded libraries were made using the NEBNext® Ultra II™ Directional RNA Library Prep Kit for Illumina® (NEB, Ipswich MA). Libraries were pooled and single end sequenced (1X75) on the Illumina NextSeq 500 using the High output V2 kit (Illumina). Read data was processed in BaseSpace. Reads were aligned to Homo sapiens genome (hg19) using STAR aligner with default settings. Differential transcript expression was determined using the Cufflinks Cuffdiff package. Go term enrichment analysis was conducted using PANTHER v11 using all genes identified as differentially expressed following either serum or Bmp4 treatment. For heat maps showing fold change in expression the FPKM values in each population were divided by the average FPKM values of untreated GBM2. To highlight differences in expression levels between serum and Bmp4 treated GBM2 cells the FPKM values in each sample were z-scored. Zscore=(FPKMObservation−FPKMAverage)/FPKMSD (FPKMObservation−FPKM value obtain through sequencing; FPKMAverage−average of all FPKM values in all samples for a certain gene; FPKMSD−standard deviation of FPKM values for a certain gene). Heat maps were generated using Microsoft Excel conditional formatting function.
Correlation of transcriptomic and image-based profiles: Euclidean distance between untreated, serum or Bmp4 treated GBM2 cells (triplicates for each) was calculated using either transcriptomic data (FPKM) or texture features. Pearson's correlation coefficient (R) was transformed to a t-value using the formula (t=R×SQRT(N−2)/SQRT(1−R2) where N is the number of samples, and R is Pearson correlation coefficient, and the p-value was calculated using Excel tdist(t) function. For compound prioritization, the Euclidean distance between compound treated and serum or Bmp4 treated GBM2 cells was calculated based on either transcriptomic data (FPKM) or image features. The average distance to both serum and Bmp4 treatments was normalized to the average distance of untreated cells to serum and Bmp4.
RNAseq and transcriptomic analysis: Total RNA was isolated from GBM2 cells using the RNeasy Kit (Qiagen), 0.25 μg total RNA was used to isolate mRNAs and for library preparation. Library preparation and sequencing were conducted by the SBP genomics core (Sanford-Burnham NCI Cancer Center Support Grant P30 CA030199). PolyA RNA was isolated using the NEBNext® Poly(A) mRNA Magnetic Isolation Module, and barcoded libraries were made using the NEBNext® Ultra II™ Directional RNA Library Prep Kit for Illumina® (NEB, Ipswich MA). Libraries were pooled and single-end sequenced (1×75) on the Illumina NextSeq 500 using the High-Output V2 kit (Illumina). Read data, processed in BaseSpace, were aligned to Homo sapiens genome (hg19) using STAR aligner with default settings. Differential transcript expression was determined using the Cufflinks Cuffdiff package. For heat maps showing fold change in expression, FPKM values in each HDACi-treated population were divided by the average FPKM values of DMSO-treated GBM2 and values shown as log 2 of the ratio. Go enrichment analysis was conducted using PANTHER v11 using all genes identified as differentially expressed following either serum or Bmp4 treatment. To highlight differences in expression levels between serum- and Bmp4-treated GBM2 cells, FPKM values in each sample were z-scored. Zscore=(FPKMObservation−FPKMAverage)/FPKMSD (FPKMObservation−FPKM value obtain through sequencing; FPKMAverage−average of all FPKM values in all samples for a certain gene; FPKMSD−standard deviation of FPKM values for a certain gene). […]

GBM2 cells [3] = experiment: Immunofluorescence of core TPC transcription factors and Ki67 in drug-treated cells; assay type: cell-based, human; settings: for Sox2 expression: GBM2, 3 days treatment, Digitoxigenin 0.3 μM; for expression of the core transcription factors: GBM2, compared with serum and Bmp4; for Sall2 and Brn2 expression: GBM2, immunofluorescence
Protocol: Cell staining: Cells were rinsed with PBS and fixed in 4% paraformaldehyde in PBS for 10 min at room temperature. After blocking with PBSAT (2% BSA and 0.5% Triton X-100 in PBS) for 1 h at room temperature, the cells were incubated overnight at 4° C. with primary antibodies diluted in PBSAT. The primary antibodies are listed in Table 2, and the appropriate fluorochrome-conjugated secondary antibodies were used at 1:500 dilution. Nuclear co-staining was performed by incubating cells with Hoechst-33342 nuclear dye.
Microscopy and image analysis: Unless stated otherwise, for MIEL analysis cells were imaged on an Opera QEHS high-content screening system (PerkinElmer) using ×40 water immersion objectives. Images collected on the Opera were analyzed using Acapella 2.6 (PerkinElmer). At least 40 fields per well were acquired and at least 2 wells per population were used. Features of nuclear morphology, fluorescence intensity inter-channel co-localization, and texture features (Image moments, Haralick, Threshold Adjacency Statistics) were calculated using custom algorithms (scripts available from www.andrewslab.ca). A full list of the features used is available from the authors. Values for each cell were generated and exported to MATLAB for further analysis. For Sall2, Olig2, Brn2, Sox2, Oct4 and GFAP immunostaining, images were captured on an IC200-KIC (Vala Sciences) using a ×20 objective. Between 3 and 8 fields per well were acquired and analyzed using Acapella 2.6 (PerkinElmer). For all nuclear markers, average intensities in nucleus or fold change in average intensity compared to untreated cells are shown. Unless stated otherwise, at least 3 wells and a minimum of 300 cells for each condition were compared using unpaired two-tailed t-test was.
Microscopy and image analysis: For MIEL analysis, cells were imaged on either an Opera QEHS high-content screening system (PerkinElmer) using ×40 water immersion objectives or an IC200-KIC (Vala Sciences) using a ×20 objective. Images collected were analyzed using Acapella 2.6 (PerkinElmer). At least 40 fields/well for Opera and 5 fields/well for IC200 were acquired and at least 2 wells per population were used. Features of nuclear morphology, fluorescence intensity inter-channel co-localization, and texture features (Image moments, Haralick, Threshold Adjacency Statistics) were calculated using custom algorithms. A full list of the features used is available from the authors. Values for each cell were generated and exported to Microsoft Excel or MATLAB for further analysis. For Sall2, Olig2, Brn2, Sox2, Oct4, and GFAP immunostaining, images were captured on an IC200-KIC (Vala Sciences) using a ×20 objective. Between 3 and 8 fields per well were acquired and analyzed using Acapella 2.6 (PerkinElmer). For all nuclear markers, average intensities in nucleus or fold change compared to untreated cells are shown. Unless stated otherwise, at least 3 wells and a minimum of 300 cells for each condition were compared using the unpaired two-tailed t-test.

TPCs = experiment: Growth rate of treated glioblastoma cells; settings: GBM2, 3 days, compared with serum/Bmp4 treatment

- outcome in high throughput screening using primary mouse hepatocytes (miBioAge) [1]: inactive molecules
Compound: O=C(O)C(Cc1c[nH]c2ccccc12)N1C(=O)c2ccccc2C1=O (centres unmarked) [RG108]

- outcome in high throughput screening using primary mouse hepatocytes (miBioAge) [1]: positive controls
Compound: CN(C)C(=N)N=C(N)N [Metformin]

- outcome in high throughput screening using primary mouse hepatocytes (miBioAge) [1]: inactive molecules
Compound: NC(=O)c1ccc[n+]([C@@H]2O[C@H](CO)[C@@H](O)[C@H]2O)c1 [nicotinamide riboside]

- outcome in high throughput screening using primary mouse hepatocytes (miBioAge) [1]: inactive molecules
Compound: NC(=O)c1ccc[n+]([C@@H]2O[C@H](COP(=O)([O-])O)[C@@H](O)[C@H]2O)c1 [Nicotiamide mononucleotide, Nicotinamide mononucleotide]

- outcome in high throughput screening using primary mouse hepatocytes (miBioAge) [1]: positive controls
Compound: C[C@]12CC[C@@H]3c4ccc(O)cc4CC[C@H]3[C@@H]1CC[C@@H]2O [17 beta-estradiol]

- outcome in high throughput screening using primary mouse hepatocytes (miBioAge) [1]: hits to be tested in animal models
Compound: Cn1c(=O)n(-c2ccc(C(C)(C)C#N)cc2)c2c3cc(-c4cnc5ccccc5c4)ccc3ncc21 [NVP-BEZ235]

Compound: COc1cc([C@@H]2c3cc4c(cc3[C@@H](O[C@@H]3O[C@@H]5CO[C@@H](C)O[C@H]5[C@H](O)[C@H]3O)[C@H]3COC(=O)[C@H]23)OCO4)cc(OC)c1O [etoposide]
- ranking by average Euclidean distance from serum- or Bmp4-treated cells (MIEL- and gene expression-based) (GBM2 cells [2]): top candidate

Compound: C[C@]12CC[C@H](O)C[C@H]1CC[C@@H]1[C@@H]2CC[C@]2(C)[C@@H](C3=CC(=O)OC3)CC[C@]12O [Digitoxigenin]
- Sox2 expression (GBM2 cells [3]): reduce
- expression of the core transcription factors (GBM2 cells [3]): downregulate
- Sall2 and Brn2 expression (GBM2 cells [3]): significant reduction
- gene expression changes (GO terms) compared with those induced by serum or BMP4 (GBM2 cells [2]): markedly different
- Euclidean distance (FPKM, all expressed genes) of treated cells to serum or Bmp4 treated cells (GBM2 cells [2]): Neither Digitoxigenin nor Digoxin reduced the distance

- outcome in high throughput screening using primary mouse hepatocytes (miBioAge) [1]: hits to be tested in animal models
Compound: COc1ncc(-c2ccc3nccc(-c4ccnnc4)c3c2)cc1NS(=O)(=O)c1ccc(F)cc1F [GSK2126458]

Compound: C[C@H]1O[C@@H](O[C@H]2[C@@H](O)C[C@H](O[C@H]3[C@@H](O)C[C@H](O[C@H]4CC[C@@]5(C)[C@H](CC[C@@H]6[C@@H]5C[C@@H](O)[C@]5(C)[C@@H](C7=CC(=O)OC7)CC[C@]65O)C4)O[C@@H]3C)O[C@@H]2C)C[C@H](O)[C@@H]1O [Digoxin]
- growth rate of drug-treated cells (TPCs): stronger reduction; also recorded: cytostatic
- growth rate of drug-treated cells (TPCs; listed as digoxin): cytostatic
- Sox2 expression (GBM2 cells [3]): reduced
- expression of the core transcription factors (GBM2 cells [3]): downregulate
- Sall2 and Brn2 expression (GBM2 cells [3]): significant reduction
- gene expression changes (GO terms) compared with those induced by serum or BMP4 (GBM2 cells [2]): markedly different
- ranking by average Euclidean distance from serum- or Bmp4-treated cells (MIEL- and gene expression-based) (GBM2 cells [2]): lowest-ranking candidate
- gene expression changes (GO terms) compared with those induced by serum or BMP4 (GBM2 cells [2]; listed as digoxin): rather different
- Euclidean distance (FPKM, all expressed genes) of treated cells to serum or Bmp4 treated cells (GBM2 cells [2]): Neither Digitoxigenin nor Digoxin reduced the distance

- outcome in high throughput screening using primary mouse hepatocytes (miBioAge) [1]: hits to be tested in animal models
Compound: CC(C)n1nc(-c2ccc3oc(N)nc3c2)c2c(N)ncnc21 [INK128]

- outcome in high throughput screening using primary mouse hepatocytes (miBioAge) [1]: positive controls
Compound: CC(Cc1ccc(O)c(O)c1)C(C)Cc1ccc(O)c(O)c1 (centres unmarked) [NDGA]
- shift of epigenetic signature of old cells towards that of young cells [1]: Statistically significant dose-dependent shifts

Compound: CC(=O)Oc1ccccc1C(=O)O [aspirin]
- shift of epigenetic signature of old cells towards that of young cells [1]: Statistically significant dose-dependent shifts
